Data from the NIST ThermoML archive (doi:10.1016/j.jct.2005.03.012).

Assay: excess molar enthalpy (molar enthalpy of mixing); xn = mol fraction of the nth substance listed
Conditions: Liquid

CO [methanol] + O
Conditions	excess molar enthalpy [kcal/mol]
355.11 K, 5000 kPa, x1 = 0.3	-0.0957
373.15 K, 5000 kPa, x1 = 0.1	-0.0386
373.15 K, 5000 kPa, x1 = 0.2	-0.053
373.15 K, 5000 kPa, x1 = 0.3	-0.0554
373.15 K, 5000 kPa, x1 = 0.4	-0.0527
373.15 K, 5000 kPa, x1 = 0.5	-0.0495
373.15 K, 5000 kPa, x1 = 0.6	-0.0465
373.15 K, 5000 kPa, x1 = 0.7	-0.0425
373.15 K, 5000 kPa, x1 = 0.8	-0.0361
373.15 K, 5000 kPa, x1 = 0.9	-0.0233
373.82 K, 5000 kPa, x1 = 0.9	-0.0227
374.46 K, 5000 kPa, x1 = 0.8	-0.0342
374.83 K, 5000 kPa, x1 = 0.7	-0.0394
375.03 K, 5000 kPa, x1 = 0.1	-0.0377
375.03 K, 5000 kPa, x1 = 0.2	-0.0491
375.03 K, 5000 kPa, x1 = 0.3	-0.0508
375.03 K, 5000 kPa, x1 = 0.4	-0.0479
375.03 K, 5000 kPa, x1 = 0.5	-0.045
375.03 K, 5000 kPa, x1 = 0.6	-0.0422
375.03 K, 5000 kPa, x1 = 0.7	-0.0388
375.03 K, 5000 kPa, x1 = 0.8	-0.0333
375.03 K, 5000 kPa, x1 = 0.9	-0.0214
375.05 K, 5000 kPa, x1 = 0.1	-0.0364
375.09 K, 5000 kPa, x1 = 0.6	-0.0424
375.26 K, 5000 kPa, x1 = 0.5	-0.0447
375.35 K, 5000 kPa, x1 = 0.9	-0.0212
375.45 K, 5000 kPa, x1 = 0.4	-0.0473
375.66 K, 5000 kPa, x1 = 0.3	-0.0498
375.68 K, 5000 kPa, x1 = 0.2	-0.0484
376.12 K, 5000 kPa, x1 = 0.8	-0.0318
376.69 K, 5000 kPa, x1 = 0.7	-0.0358
376.94 K, 5000 kPa, x1 = 0.6	-0.0382
376.98 K, 5000 kPa, x1 = 0.1	-0.034
377.07 K, 5000 kPa, x1 = 0.5	-0.0403
377.26 K, 5000 kPa, x1 = 0.4	-0.0427
377.41 K, 5000 kPa, x1 = 0.3	-0.0455
377.47 K, 5000 kPa, x1 = 0.2	-0.0447
420.87 K, 10000 kPa, x1 = 0.4	0.0499
420.97 K, 2000 kPa, x1 = 0.4	0.0467
420.98 K, 5000 kPa, x1 = 0.4	0.0483
420.98 K, 5000 kPa, x1 = 0.5	0.051
421.12 K, 10000 kPa, x1 = 0.6	0.0491
421.18 K, 5000 kPa, x1 = 0.6	0.048
421.19 K, 2000 kPa, x1 = 0.6	0.0457
421.39 K, 5000 kPa, x1 = 0.3	0.0384
421.51 K, 5000 kPa, x1 = 0.7	0.0404
421.69 K, 10000 kPa, x1 = 0.2	0.0282
421.8 K, 2000 kPa, x1 = 0.2	0.0262
421.84 K, 5000 kPa, x1 = 0.2	0.0269
421.92 K, 10000 kPa, x1 = 0.8	0.0294
421.97 K, 2000 kPa, x1 = 0.8	0.0259
421.98 K, 5000 kPa, x1 = 0.8	0.0283
422.47 K, 5000 kPa, x1 = 0.9	0.0141
422.53 K, 5000 kPa, x1 = 0.1	0.0114
422.8 K, 10000 kPa, x1 = 0.4	0.0539
422.84 K, 5000 kPa, x1 = 0.4	0.0521
422.84 K, 5000 kPa, x1 = 0.5	0.0547
422.86 K, 2000 kPa, x1 = 0.4	0.05
423.02 K, 10000 kPa, x1 = 0.6	0.0528
423.08 K, 2000 kPa, x1 = 0.6	0.049
423.12 K, 5000 kPa, x1 = 0.6	0.0512
423.14 K, 5000 kPa, x1 = 0.7	0.0432
423.15 K, 2000 kPa, x1 = 0.2	0.0278
423.15 K, 2000 kPa, x1 = 0.4	0.0501
423.15 K, 2000 kPa, x1 = 0.6	0.0484
423.15 K, 2000 kPa, x1 = 0.8	0.027
423.15 K, 5000 kPa, x1 = 0.1	0.0118
423.15 K, 5000 kPa, x1 = 0.2	0.0287
423.15 K, 5000 kPa, x1 = 0.3	0.0414
423.15 K, 5000 kPa, x1 = 0.4	0.0522
423.15 K, 5000 kPa, x1 = 0.5	0.0549
423.15 K, 5000 kPa, x1 = 0.6	0.0514
423.15 K, 5000 kPa, x1 = 0.7	0.0421
423.15 K, 5000 kPa, x1 = 0.8	0.0294
423.15 K, 5000 kPa, x1 = 0.9	0.0143
423.15 K, 10000 kPa, x1 = 0.2	0.0302
423.15 K, 10000 kPa, x1 = 0.4	0.0538
423.15 K, 10000 kPa, x1 = 0.6	0.0531
423.15 K, 10000 kPa, x1 = 0.8	0.0302
423.37 K, 5000 kPa, x1 = 0.3	0.0416
423.39 K, 5000 kPa, x1 = 0.8	0.0299
423.49 K, 2000 kPa, x1 = 0.8	0.0275
423.62 K, 10000 kPa, x1 = 0.8	0.0305
423.64 K, 10000 kPa, x1 = 0.2	0.0315
423.68 K, 5000 kPa, x1 = 0.2	0.0299
423.69 K, 2000 kPa, x1 = 0.2	0.0288
423.76 K, 5000 kPa, x1 = 0.9	0.0151
424.45 K, 5000 kPa, x1 = 0.1	0.0132
424.96 K, 5000 kPa, x1 = 0.1	0.0136
424.96 K, 5000 kPa, x1 = 0.2	0.0315
424.96 K, 5000 kPa, x1 = 0.3	0.0442
424.96 K, 5000 kPa, x1 = 0.4	0.056
424.96 K, 5000 kPa, x1 = 0.5	0.0586
424.96 K, 5000 kPa, x1 = 0.6	0.0565
424.96 K, 5000 kPa, x1 = 0.7	0.0451
424.96 K, 5000 kPa, x1 = 0.8	0.0318
424.96 K, 5000 kPa, x1 = 0.9	0.016
425 K, 2000 kPa, x1 = 0.2	0.0306
425 K, 2000 kPa, x1 = 0.4	0.054
425 K, 2000 kPa, x1 = 0.6	0.0545
425 K, 2000 kPa, x1 = 0.8	0.0286
425.1 K, 10000 kPa, x1 = 0.2	0.0334
425.1 K, 10000 kPa, x1 = 0.4	0.0578
425.1 K, 10000 kPa, x1 = 0.6	0.0584
